Tests used:
[1] = system: microfilariae of Dirofilaria immitis; test: Dirofilaria immitis, Microfilaria (DiMF) In vitro Assay; format: cell-based; conditions: 72 h, read-out: DiMF Minimum Effective Dose (MED), approximately 72 hours incubation, microfilariae assessed for survival or paralysis
[2] = system: third stage larvae of Haemonchus contortus; test: Haemonchus contortus L3 (HcL3) Assay; format: cell-based; conditions: 96 h, read-out: HcL3 Minimum Effective Dose (MED)

| Compound | minimal effective concentration [1] | minimal effective concentration [2] |
| --- | --- | --- |
| Cc1ccn(Cc2ccc(C[C@H]3OC(=O)[C@H](CC(C)C)N(C)C(=O)[C@@H](C)OC(=O)[C@H](CC(C)C)N(C)C(=O)[C@@H](Cc4ccc(Cn5ccc(C)n5)cc4)OC(=O)[C@H](CC(C)C)N(C)C(=O)[C@@H](C)OC(=O)[C@H](CC(C)C)N(C)C3=O)cc2)n1 [Example 1b-94, (3S,6R,9S,12R,15S,18R,21S,24R)-3,9,15,21-tetraisobutyl-4,6,10,16,18,22-hexamethyl-12,24-bis(4-((3-methyl-1H-pyrazol-1-yl)methyl)benzyl)-1,7,13,19-tetraoxa-4,10,16,22-tetraazacyclotetracosan-2,5,8,11,14,17,20,23-octaone] | 0.001 to 0.01 µM | ≤ 1 µM |
| CCc1ccn(Cc2ccc(C[C@H]3OC(=O)[C@H](CC(C)C)N(C)C(=O)[C@@H](C)OC(=O)[C@H](CC(C)C)N(C)C(=O)[C@@H](Cc4ccc(Cn5ccc(CC)n5)cc4)OC(=O)[C@H](CC(C)C)N(C)C(=O)[C@@H](C)OC(=O)[C@H](CC(C)C)N(C)C3=O)cc2)n1 [Example 1b-95, (3S,6R,9S,12R,15S,18R,21S,24R)-6,18-bis(4-((3-ethyl-1H-pyrazol-1-yl)methyl)benzyl)-3,9,15,21-tetraisobutyl-4,10,12,16,22,24-hexamethyl-1,7,13,19-tetraoxa-4,10,16,22-tetraazacyclotetracosan-2,5,8,11,14,17,20,23-octaone] | 0.001 to 0.01 µM | 1 to 10 µM |
| Cc1nn(Cc2ccc(C[C@H]3OC(=O)[C@H](CC(C)C)N(C)C(=O)[C@@H](C)OC(=O)[C@H](CC(C)C)N(C)C(=O)[C@@H](Cc4ccc(Cn5nc(C)c(F)c5C)cc4)OC(=O)[C@H](CC(C)C)N(C)C(=O)[C@@H](C)OC(=O)[C@H](CC(C)C)N(C)C3=O)cc2)c(C)c1F [Example 1b-110, (3S,6R,9S,12R,15S,18R,21S,24R)-6,18-bis(4-((4-fluoro-3,5-dimethyl-1H-pyrazol-1-yl)methyl)benzyl)-3,9,15,21-tetraisobutyl-4,10,12,16,22,24-hexamethyl-1,7,13,19-tetraoxa-4,10,16,22-tetraazacyclotetracosan-2,5,8,11,14,17,20,23-octaone] | 0.01 to 0.1 µM | 1 to 10 µM |
| CC(C)C[C@H]1C(=O)O[C@H](Cc2ccc(Cn3nc(C4CC4)c(N)c3C3CC3)cc2)C(=O)N(C)[C@@H](CC(C)C)C(=O)O[C@H](C)C(=O)N(C)[C@@H](CC(C)C)C(=O)O[C@H](Cc2ccc(Cn3nc(C4CC4)c(N)c3C3CC3)cc2)C(=O)N(C)[C@@H](CC(C)C)C(=O)O[C@H](C)C(=O)N1C [Example 1b-145, (3S,6R,9S,12R,15S,18R,21S,24R)-6,18-bis(4-((4-amino-3,5-dicyclopropyl-1H-pyrazol-1-yl)methyl)benzyl)-3,9,15,21-tetraisobutyl-4,10,12,16,22,24-hexamethyl-1,7,13,19-tetraoxa-4,10,16,22-tetraazacyclotetracosan-2,5,8,11,14,17,20,23-octaone] | 0.001 to 0.01 µM | 1 to 10 µM |
| CC(C)C[C@H]1C(=O)O[C@H](Cc2ccc(Cn3nccc3C3(C)CCOCC3)cc2)C(=O)N(C)[C@@H](CC(C)C)C(=O)O[C@H](C)C(=O)N(C)[C@@H](CC(C)C)C(=O)O[C@H](Cc2ccc(Cn3nccc3C3(C)CCOCC3)cc2)C(=O)N(C)[C@@H](CC(C)C)C(=O)O[C@H](C)C(=O)N1C [Example 1b-213, (3S,6R,9S,12R,15S,18R,21S,24R)-3,9,15,21-tetraisobutyl-4,6,10,16,18,22-hexamethyl-12,24-bis(4-((5-(4-methyltetrahydro-2H-pyran-4-yl)-1H-pyrazol-1-yl)methyl)benzyl)-1,7,13,19-tetraoxa-4,10,16,22-tetraazacyclotetracosan-2,5,8,11,14,17,20,23-octaone] | 0.001 to 0.01 µM | 1 to 10 µM |
